According to patent US11813250B2, “Topical formulations containing mTOR inhibitors” (Shanghai Aucta Pharmaceuticals Co., Ltd., priority 2020, dated 2023):
Converted amounts (≈) assume the structure as drawn. Read-outs that look alike come from different tables or passages of the source.

What was measured:
[1] = Solubility in topical solvents; assay type: physicochemical; conditions: organic solvent or mixture
Protocol: This example evaluated sirolimus and everolimus solubility and stability in various FDA approved topical solvents and co-solvent systems such as diethylene glycol monoethyl ether (Transcutol® P as manufactured by Gattefosse), N-Methyl-2-pyrrolidone (NMP), dimethyl sulfoxide (DMSO), ethanol, Caprylocaproyl polyoxyl-8 glycerides (Labrasol® as manufactured by Gattefosse) and propylene carbonate combined or alone.
The melting point of DMSO is 19° C. (66° F.; 292 K), thus it will freeze under refrigerated condition.

[2] = Sirolimus isomer C stability in various solvents under 40° C. for 24 hr (HPLC); assay type: physicochemical
Protocol: (§1) Sirolimus concentrations are at 20 mg/ml in the solvent and co-solvent systems. The solution was stored at 40° C. oven and samples were evaluated at time 0, 1, 4 and 24 hours with HPLC analysis.

[3] = Seco-Rapamycin in various solvents under 40° C. for 24 hr; assay type: physicochemical; conditions: for percentage of Seco-Rapamycin in the overall amount of sirolimus: 40° C.
Protocol: as §1
Seco-Rapamycin is a major decomposition product of sirolimus, the open ring conformation of Rapamycin (sirolimus), is also quantitated in the solvent systems. […] The initial concentrations of Seco-Rapamycin were undetectable in the tested samples. Less than 0.5% of sirolimus converted or degraded to Seco-Rapamycin in Propylene Carbonate, DMSO and NMP.

[4] = cited from earlier work
[5] = Everolimus isomer C stability study in various solvents at 50° C.; assay type: physicochemical
Protocol: The formulation of this example was prepared in substantially the same manner as the composition of Example 1.
Experiments were performed to study the stability of everolimus in Transcutol P, NMP, DMSO and propylene carbonate under 40° C. at concentration of 20 mg/ml and everolimus in Transcutol P, NMP, DMSO, ethanol, Labrasol and propylene carbonate under 50° C. at concentration of 80 mg/ml. […] DMSO, NMP and propylene carbonate stabilized sirolimus and everolimus and could be used as dissolving agents together or separately.
Everolimus concentrations are at 80 mg/ml in the solvent and co-solvent systems. The said solution was stored at 50° C. oven and samples were evaluated at time 0, 1 h, 2 h and 4 h.

[6] = DMSO, room temperature, read-out: solubility in DMSO
[7] = N-Methyl-2-pyrrolidone (NMP), both room temperature and refrigerated condition, read-out: solubility in NMP
[8] = Transcutol P (diethylene glycol monoethyl ether), both room temperature and refrigerated condition, read-out: solubility in Transcutol P
[9] = propylene carbonate, both room temperature and refrigerated condition, read-out: solubility in propylene carbonate

For `CO[C@H]1C[C@@H]2CC[C@@H](C)[C@@](O)(O2)C(=O)C(=O)N2CCCC[C@H]2C(=O)O[C@H]([C@H](C)C[C@@H]2CC[C@@H](O)[C@H](OC)C2)CC(=O)[C@H](C)/C=C(\C)[C@@H](O)[C@@H](OC)C(=O)[C@H](C)C[C@H](C)/C=C/C=C/C=C/1C` [Sirolimus], the solubility [1, 6] was greater than 100 mg/mL, the solubility [1, 7] was greater than 100 mg/mL and the solubility [1, 8] was greater than 80 mg/mL. For the same compound, the solubility [1, 9] was roughly 30 mg/mL (≈ 32.8 mM), the “sirolimus converted to isomer C after time 0” value ([2]; in NMP, DMSO and propylene carbonate within 24 hours) was “less than 1.5%” and the “Isomer C level (%)” value ([2]; sirolimus 20 mg/ml in 50% NMP + 50% DMSO, 0 h) was 1.07%. The “Isomer C level (%)” value ([2]; sirolimus 20 mg/ml in 50% NMP + 50% DMSO, 1 h) was 1.15%, the “Isomer C level (%)” value ([2]; sirolimus 20 mg/ml in 50% NMP + 50% DMSO, 4 h) was 1.46% and the “Isomer C level (%)” value ([2]; sirolimus 20 mg/ml in 50% NMP + 50% DMSO, 24 h) was 1.46%. The “Isomer C level (%)” value ([2]; sirolimus 20 mg/ml in DMSO, 0 h) was 1.51%, the “Isomer C level (%)” value ([2]; sirolimus 20 mg/ml in DMSO, 1 h) was 1.23% and the “Isomer C level (%)” value ([2]; sirolimus 20 mg/ml in DMSO, 4 h) was 1.72%. For the same compound, the “Isomer C level (%)” value ([2]; sirolimus 20 mg/ml in DMSO, 24 h) was 2.50%, the “Isomer C level (%)” value ([2]; sirolimus 20 mg/ml in NMP, 0 h) was 1.00% and the “Isomer C level (%)” value ([2]; sirolimus 20 mg/ml in NMP, 1 h) was 1.02%. The “Isomer C level (%)” value ([2]; sirolimus 20 mg/ml in NMP, 4 h) was 1.21%, the “Isomer C level (%)” value ([2]; sirolimus 20 mg/ml in NMP, 24 h) was 1.46% and the “Isomer C level (%)” value ([2]; sirolimus 20 mg/ml in Propylene Carbonate, 0 h) was 1.12%. For the same compound, the “Isomer C level (%)” value ([2]; sirolimus 20 mg/ml in Propylene Carbonate, 1 h) was 1.12%, the “Isomer C level (%)” value ([2]; sirolimus 20 mg/ml in Propylene Carbonate, 4 h) was 1.46% and the “Isomer C level (%)” value ([2]; sirolimus 20 mg/ml in Propylene Carbonate, 24 h) was 2.77%. The “Isomer C level (%)” value ([2]; sirolimus 20 mg/ml in Transcutol P, 0 h) was 4.93%, the “Isomer C level (%)” value ([2]; sirolimus 20 mg/ml in Transcutol P, 1 h) was 7.11% and the “Isomer C level (%)” value ([2]; sirolimus 20 mg/ml in Transcutol P, 4 h) was 8.14%. The “Isomer C level (%)” value ([2]; sirolimus 20 mg/ml in Transcutol P, 24 h) was 8.18%, the “initial concentrations of Seco-Rapamycin” value ([3]; in the tested samples, time 0) was “undetectable” and the “percentage of Seco-Rapamycin in the overall amount of sirolimus” value (from here on “percentage of Seco-Rapamycin”) ([3]; sirolimus in 50% NMP + 50% DMSO, 4 h) was 0.09%. For the same compound, the “percentage of Seco-Rapamycin” value ([3]; sirolimus in 50% NMP + 50% DMSO, 24 h) was 0.13%, the “percentage of Seco-Rapamycin” value ([3]; sirolimus in DMSO, 4 h) was 0.23% and the “percentage of Seco-Rapamycin” value ([3]; sirolimus in DMSO, 24 h) was 0.44%. The “percentage of Seco-Rapamycin” value ([3]; sirolimus in NMP, 4 h) was 0.12%, the “percentage of Seco-Rapamycin” value ([3]; sirolimus in NMP, 24 h) was 0.26% and the “percentage of Seco-Rapamycin” value ([3]; sirolimus in Propylene Carbonate, 24 h) was 0.08%. For the same compound, the “percentage of Seco-Rapamycin” value ([3]; sirolimus in Transcutol P, 0 h) was 0.20%, the “percentage of Seco-Rapamycin” value ([3]; sirolimus in Transcutol P, 1 h) was 0.23% and the “percentage of Seco-Rapamycin” value ([3]; sirolimus in Transcutol P, 4 h) was 0.76%. For the same compound, the “percentage of Seco-Rapamycin” value ([3]; sirolimus in Transcutol P, 24 h) was 1.06% and the water solubility [4] was “poorly water-soluble”.

In the case of `CO[C@H]1C[C@@H]2CC[C@@H](C)[C@@](O)(O2)C(=O)C(=O)N2CCCC[C@H]2C(=O)O[C@H]([C@H](C)C[C@@H]2CC[C@@H](OCCO)[C@H](OC)C2)CC(=O)[C@H](C)/C=C(\C)[C@@H](O)[C@@H](OC)C(=O)[C@H](C)C[C@H](C)/C=C/C=C/C=C/1C` [Everolimus], the solubility [1, 6] is reported as greater than 200 mg/mL, the solubility [1, 7] is reported as greater than 100 mg/mL and the solubility [1, 8] is reported as greater than 100 mg/mL. The solubility [1, 9] was greater than 100 mg/mL, the “Isomer C level (%)” value ([5]; everolimus 80 mg/ml in DMSO, 0 h) was 1.63% and the “Isomer C level (%)” value ([5]; everolimus 80 mg/ml in DMSO, 1 h) was 1.67%. For the same compound, the “Isomer C level (%)” value ([5]; everolimus 80 mg/ml in DMSO, 2 h) was 1.73%, the “Isomer C level (%)” value ([5]; everolimus 80 mg/ml in DMSO, 4 h) was 1.86% and the “Isomer C level (%)” value ([5]; everolimus 80 mg/ml in Ethanol, 0 h) was 1.85%. The “Isomer C level (%)” value ([5]; everolimus 80 mg/ml in Ethanol, 1 h) was 2.66%, the “Isomer C level (%)” value ([5]; everolimus 80 mg/ml in Ethanol, 2 h) was 3.81% and the “Isomer C level (%)” value ([5]; everolimus 80 mg/ml in Ethanol, 4 h) was 5.40%. The “Isomer C level (%)” value ([5]; everolimus 80 mg/ml in NMP, 0 h) was 1.62%, the “Isomer C level (%)” value ([5]; everolimus 80 mg/ml in NMP, 1 h) was 1.76% and the “Isomer C level (%)” value ([5]; everolimus 80 mg/ml in NMP, 2 h) was 1.86%. For the same compound, the “Isomer C level (%)” value ([5]; everolimus 80 mg/ml in NMP, 4 h) was 1.99%, the “Isomer C level (%)” value ([5]; everolimus 80 mg/ml in Propylene Carbonate, 0 h) was 1.63% and the “Isomer C level (%)” value ([5]; everolimus 80 mg/ml in Propylene Carbonate, 1 h) was 1.84%. For the same compound, the “Isomer C level (%)” value ([5]; everolimus 80 mg/ml in Propylene Carbonate, 2 h) was 2.06%, the “Isomer C level (%)” value ([5]; everolimus 80 mg/ml in Propylene Carbonate, 4 h) was 2.47% and the “Isomer C level (%)” value ([5]; everolimus 80 mg/ml in Transcutol P, 0 h) was 1.71%. For the same compound, the “Isomer C level (%)” value ([5]; everolimus 80 mg/ml in Transcutol P, 1 h) was 3.78%, the “Isomer C level (%)” value ([5]; everolimus 80 mg/ml in Transcutol P, 2 h) was 5.26% and the “Isomer C level (%)” value ([5]; everolimus 80 mg/ml in Transcutol P, 4 h) was 6.43%. For the same compound, the “increase of the assay of everolimus isomer C” value ([5]; from 0 h to 4 h in DMSO, propylene carbonate and NMP, 80 mg/ml) was “less than 1.5%” and the water solubility [4] was “poorly water-soluble”.
